Measurements published in patent publication US20070259861A1, “Combination therapy with non-selective COX inhibitors to prevent COX-related gastric injuries” (Pharmena North America Inc., priority 2006, published 2007).

How the values were obtained:
gastric mucosa = assay: ASA- and WRS-induced gastric lesions in non-diabetic and streptozocin-diabetic rats; type: in vivo; conditions: for rise of gastric blood flow (GBF): H2-gas clearance
Protocol: In this study, streptozocin (70 mg/kg injected intraperitoneally) was used to induce diabetes mellitus and non-diabetic and diabetic rats were pretreated 30 min prior to exposure to aspirin (ASA; 150 mg/kg in 0.1 N HCl i.g.) or 3.5 h of water immersion and restraint stress (WRS) with 1) vehicle (saline) or 2) MNA (2.5-50 mg/kg i.g.). The area and number of gastric lesions was determined by planimetry, gastric blood flow (GBF) was examined by H2-gas clearance technique, and mieloperoxidase (MPO) activity, activity of superoxide dismutase (SOD) and the malonyldialdehyde (MDA) concentration as an index of lipid peroxidation were determined in gastric mucosa using ELISA. The gene expression IL-1β and TNF-α in the gastric mucosa and their plasma levels were evaluated by RT-PCR and ELISA, respectively. […] This experiment is also described in an abstract published for Digestive Disease Week 2006 (May 20-25, 2006, Los Angeles, Calif.; http://www.medscape.com/viewprogram/5452).

[1] = test system: prostacyclin (PGI2) release; conditions: cited from earlier work; for release of prostacyclin: animal models
[2] = ASA 150 mg/kg in 0.1 N HCl i.g.

What does the source list for `CNC(=O)c1cccnc1` [MNA, N-methylnicotinamide]?
decrease of mucosal SOD activity and increase of MDA (gastric mucosa; ASA- and WRS-exposed animals without or with diabetes): markedly attenuated; WRS-induced gastric erosions (gastric mucosa; MNA 2.5-50 mg/kg i.g. 30 min before 3.5 h WRS, diabetic and non-diabetic rats): dose-dependently attenuated; ASA-induced gastric erosions (gastric mucosa; MNA 2.5-50 mg/kg i.g. 30 min before ASA 150 mg/kg i.g., diabetic and non-diabetic rats): dose-dependently attenuated; IL-1β and TNF-α (gastric mucosa; gastric mucosa expression (RT-PCR) and plasma levels (ELISA)): downregulation; rise of gastric blood flow (GBF) (gastric mucosa; injured gastric mucosa): ~33%; rise of gastric blood flow (GBF) (gastric mucosa; intact gastric mucosa): about 22%; secretion of PGI2 ([1]; thrombolytic assay): stimulate the secretion of PGI2

For 1-methyl-3-acetylpyridinium salt, which release of prostacyclin [1] is on record?
Its release of prostacyclin is “ability to induce the release of prostacyclin”.

With `CC(=O)Oc1ccccc1C(=O)O` [ASA, aspirin] as the compound, how does the gastric lesions (gastric mucosa; [2]) read?
The gastric lesions was “typical gastric lesions”.

And the “reduction of GBF from basal” value (gastric mucosa; [2])?
Its value is 35%.

And the “increase of MPO activity” value (gastric mucosa; ASA 150 mg/kg in 0.1 N HCl i.g., gastric mucosa)?
Its value is 2-3 fold.

What about the “mucosal SOD activity” value (gastric mucosa; ASA-exposed animals without or with diabetes) of the same compound?
The value was “significantly decreased”.

And the “MDA activity (lipid peroxidation)” value (gastric mucosa; ASA-exposed animals without or with diabetes, gastric mucosa)?
The value was “significantly increased”.

What about the “plasma levels of TNF-α and IL-1” value (gastric mucosa; ASA-exposed, ELISA) of the same compound?
The value was “marked increase”.

And the “mRNAs for TNF-α and IL-1” value (gastric mucosa; ASA-exposed, gastric mucosa, RT-PCR)?
Its value is “overexpression”.

With `C[n+]1cccc(C(=O)NCO)c1` [1-methyl-N′-(hydroxymethyl)nicotinamide] as the compound, how does the release of prostacyclin [1] read?
Its release of prostacyclin is “ability to induce the release of prostacyclin”.

For `C[n+]1cccc(C(N)=O)c1` [1-methylnicotinamide chloride], which release of prostacyclin [1] is on record?
Its release of prostacyclin is “ability to induce the release of prostacyclin”.
